Results published in US20230190754A1, “Therapeutic combinations for the treatment of Progressive Fibrosing interstitial lung diseases” (Boehringer Ingelheim International GmbH, priority 2021, published 2023).
Marks after values point to notes of the source that are not given here.

System: IPF patients
Test: Phase II clinical trial in IPF patients: Treatment Emergent Adverse Events (safety/tolerability), up to 13 weeks
[1] = Non-AF-group, 18 mg b.i.d., listed as Compound of Formula III
[2] = Non-AF-group, 18 mg b.i.d., listed as active agent

## [O-][S@+]1CCc2nc(N3CCC(c4ncc(Cl)cn4)CC3)nc(NC3(CO)CCC3)c21 [Comp. of form. III]
Non-AF-group, 18 mg b.i.d.
  AE: Decreased appetite, patients %: (2.1) %
  AE: Decreased appetite, patients n: 1
  AE: Diarrhoea, patients %: 16.7%
  AE: Diarrhoea, patients n: 8
  AE: Dizziness, patients %: (2.1) %
  AE: Dizziness, patients n: 1
  AE: Dyspepsia, patients %: (6.3) %
  AE: Dyspepsia, patients n: 3
  AE: Dyspnoea, patients %: (6.3) %
  AE: Dyspnoea, patients n: 3
  AE: Fatigue, patients %: (4.2) %
  AE: Fatigue, patients n: 2
  AE: Flatulence, patients %: (6.3) %
  AE: Flatulence, patients n: 3
  AE: Gastrointestinal disorders, patients %: (27.1) %
  AE: Gastrointestinal disorders, patients n: 13
  AE: General disorders and administration site conditions, patients %: (18.8) %
  AE: General disorders and administration site conditions, patients n: 9
  AE: Headache, patients %: (6.3) %
  AE: Headache, patients n: 3
  AE: Infections and infestations, patients %: (14.6) %
  AE: Infections and infestations, patients n: 7
  AE: Investigations, patients %: (10.4) %
  AE: Investigations, patients n: 5
  AE: Metabolism and nutrition disorders, patients %: (2.1) %
  AE: Metabolism and nutrition disorders, patients n: 1
  AE: Musculoskeletal and connective tissue disorders, patients %: (4.2) %
  AE: Musculoskeletal and connective tissue disorders, patients n: 2
  AE: Nausea, patients %: (4.2) %
  AE: Nausea, patients n: 2
  AE: Nervous system disorders, patients %: (8.3) %
  AE: Nervous system disorders, patients n: 4
  AE: Oedema peripheral, patients %: (2.1) %
  AE: Oedema peripheral, patients n: 1
  AE: Pyrexia, patients %: (2.1) %
  AE: Pyrexia, patients n: 1
  AE: Respiratory, thoracic and mediastinal disorders, patients %: (16.7) %
  AE: Respiratory, thoracic and mediastinal disorders, patients n: 8
  AE: Rhinorrhoea, patients %: (2.1) %
  AE: Rhinorrhoea, patients n: 1
  AE: Vomiting, patients %: (2.1) %
  AE: Vomiting, patients n: 1
  AE: Weight decreased, patients %: (4.2) %
  AE: Weight decreased, patients n: 2
  AEs leading to discontinuation of trial drug, patients %: (6.3) %
  AEs leading to discontinuation of trial drug, patients n: 3
  Any AE, patients n: 31
  Gastrointestinal disorders leading to discontinuation of trial treatment, patients n: 1
  SAE: COPD, patients %: (2.1) %
  SAE: COPD, patients n: 1
  SAE: Cardiac disorders, patients %: (2.1) %
  SAE: Cardiac disorders, patients n: 1
  SAE: Cardiac failure congestive, patients %: (2.1) %
  SAE: Cardiac failure congestive, patients n: 1
  SAE: Covid-19 pneumonia (fatal event), patients %: (2.1)* %
  SAE: Covid-19 pneumonia (fatal event), patients n: 1
  SAE: Dyspnoea, patients %: (2.1) %
  SAE: Dyspnoea, patients n: 1
  SAE: Infections and Infestations, patients %: (2.1) %
  SAE: Infections and Infestations, patients n: 1
  SAE: Lung neoplasm, patients %: (2.1) %
  SAE: Lung neoplasm, patients n: 1
  SAE: Neoplasms benign, malignant and unspecified, patients %: (2.1) %
  SAE: Neoplasms benign, malignant and unspecified, patients n: 1
  SAE: Respiratory, thoracic and mediastinal disorders, patients %: (2.1) %
  SAE: Respiratory, thoracic and mediastinal disorders, patients n: 1
  Serious AEs (patients with ≥1 SAE), patients %: (6.3) %
  Serious AEs (patients with ≥1 SAE), patients n: 3
  Severe AEs, patients %: (4.2) %
  Severe AEs, patients n: 2
  Vomiting leading to discontinuation of trial treatment, patients %: (2.1) %
  Vomiting leading to discontinuation of trial treatment, patients n: 1
[1]
  AE: Diarrhoea, patients %: (16.7) %
  Any AE, patients %: (64.6) %
  Gastrointestinal disorders leading to discontinuation of trial treatment, patients %: (2.1) %
[2]
  AE: Diarrhoea, patients %: 16.7%
  Any AE, patients %: 64.6%
  Gastrointestinal disorders leading to discontinuation of trial treatment, patients %: 2.1%
Total, N = 97
  Abdominal Pain, %: (2.1) %
  Arthralgia, %: (2.1) %
  Asthenia, %: (4.1) %
  Bronchitis, %: (2.1) %
  Condition aggravated, %: (2.1) %
  Constipation, %: (3.1) %
  Cough, %: (7.2) %
  Decreased appetite, %: (3.1) %
  Diarrhoea, %: (23.7) %
  Dizziness, %: (2.1) %
  Dyspepsia, %: (5.2) %
  Dyspnoea, %: (3.1) %
  Fatigue, %: (3.1) %
  Flatulence, %: (5.2) %
  Gastrointestinal disorders, %: (32.0) %
  General Disorders and Administration Side conditions, %: (16.5) %
  Headache, %: (6.2) %
  Infections and infestations, %: (14.4) %
  Investigations, %: (15.5) %
  Metabolism and nutrition disorders, %: (4.1) %
  Musculoskeletal and connective tissue disorders, %: (5.2) %
  Nasopharyngitis, %: (4.1) %
  Nausea, %: (3.1) %
  Nervous system disorders, %: (13.4) %
  Oedema peripheral, %: (2.1) %
  Pyrexia, %: (2.1) %
  Respiratory, thoracic and mediastinal disorders, %: (14.4) %
  Rhinorrhoea, %: (2.1) %
  Vomiting, %: (3.1) %
  Weight decreased, %: (3.1) %
